Source: PMC2556223 (Journal of biomolecular screening, 2008)
Where two headings read alike, the source gives them in different places.

Tests used:
[1] = system: cells; assay: Quantitative cytotoxicity assay; assay type: cell-based; details: for CC50: 24 h, absence of virus, highest concentration assessed 150 μM, averages of two experiments; for SI (CC50/EC50): specificity index, CC50 / EC50 against MV-Alaska
[2] = system: CDV-752; assay: Dose-response CPE assay, Vero-dogSLAM cells; assay type: cell-based, canine distemper virus; details: for EC50: read-out: EC50 (CDV-752)
[3] = system: HPIV3; assay: Dose-response CPE assay, Vero cells; assay type: cell-based, human parainfluenzavirus type 3; details: for EC50: read-out: EC50 (HPIV3)
[4] = system: MV-AII-5; assay: Dose-response CPE assay against AS-136A-adapted MV variant; details: read-out: EC50 (MV-AII-5); MV-Alaska variant adapted to grow in presence of RdRp inhibitor AS-136A; highest concentration assessed 37.5 μM
[5] = system: MV-Ibd; assay: Dose-response CPE assay against AS-48-resistant MV strain; details: for EC50 (MV-Ibd): strain naturally resistant to MV fusion inhibitor AS-48, highest concentration assessed 37.5 μM
[6] = Quantitative cytotoxicity assay; assay type: cell-based
[7] = biological target: MV H and F envelope glycoproteins (Measles virus, UniProt P08362+P69353); assay: cell-based
MV H and F envelope glycoproteins, sequence (P08362 whole entry): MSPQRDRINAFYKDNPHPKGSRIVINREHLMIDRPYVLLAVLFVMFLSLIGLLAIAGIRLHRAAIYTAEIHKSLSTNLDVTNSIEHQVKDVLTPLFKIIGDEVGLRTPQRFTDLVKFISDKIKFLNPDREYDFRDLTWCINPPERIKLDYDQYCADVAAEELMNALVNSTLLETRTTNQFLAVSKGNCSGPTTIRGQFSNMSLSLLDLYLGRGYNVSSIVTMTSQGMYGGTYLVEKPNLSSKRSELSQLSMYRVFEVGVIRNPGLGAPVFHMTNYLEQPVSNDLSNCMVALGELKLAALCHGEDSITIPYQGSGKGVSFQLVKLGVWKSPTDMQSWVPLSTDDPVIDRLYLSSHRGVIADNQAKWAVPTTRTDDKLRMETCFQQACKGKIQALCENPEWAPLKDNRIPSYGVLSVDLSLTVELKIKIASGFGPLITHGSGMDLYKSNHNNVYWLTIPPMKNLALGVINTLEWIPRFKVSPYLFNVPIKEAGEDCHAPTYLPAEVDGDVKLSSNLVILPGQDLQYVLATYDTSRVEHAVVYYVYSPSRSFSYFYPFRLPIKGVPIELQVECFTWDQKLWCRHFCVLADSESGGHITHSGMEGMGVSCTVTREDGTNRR
MV H and F envelope glycoproteins, sequence (P69353 113-550): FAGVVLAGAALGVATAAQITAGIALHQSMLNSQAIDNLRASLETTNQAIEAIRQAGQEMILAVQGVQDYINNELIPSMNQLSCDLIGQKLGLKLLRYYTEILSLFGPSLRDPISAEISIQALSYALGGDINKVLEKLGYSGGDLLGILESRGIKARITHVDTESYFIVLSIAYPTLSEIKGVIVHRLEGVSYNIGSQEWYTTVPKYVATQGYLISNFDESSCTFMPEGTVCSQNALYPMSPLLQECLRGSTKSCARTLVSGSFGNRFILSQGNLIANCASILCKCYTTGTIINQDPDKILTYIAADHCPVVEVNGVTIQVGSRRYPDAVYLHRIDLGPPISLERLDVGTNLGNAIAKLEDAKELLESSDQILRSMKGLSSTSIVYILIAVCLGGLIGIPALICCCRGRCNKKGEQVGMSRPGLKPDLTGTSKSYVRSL
MV H and F envelope glycoproteins, sequence (P69353 24-112): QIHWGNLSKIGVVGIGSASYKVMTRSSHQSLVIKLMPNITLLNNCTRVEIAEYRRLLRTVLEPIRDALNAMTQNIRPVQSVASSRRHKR

[8] = system: MV-Alaska; assay: Dose-response curves based on suppression of viral CPE; assay type: cell-based, measles virus; details: for Activity of re-synthesized compound versus original library substance: biotesting of chemically re-synthesized compound, data not shown
[9] = Vero-dogSLAM cells, highest concentration assessed 37.5 μM
[10] = Vero cells, highest concentration assessed 37.5 μM

| Structure (SMILES) | CC50 [1] | SI (CC50/EC50) [1] | EC50 (CDV-752) [2, 9] | EC50 (HPIV3) [3, 10] | EC50 [4] | EC50 (MV-Ibd) [5] | EC50 [2, 9] | EC50 [3, 10] | further results |
| --- | --- | --- | --- | --- | --- | --- | --- | --- | --- |
| O=C(/C=C/c1cccs1)Nc1cccc(NC(=O)/C=C/c2cccs2)n1 [compound 17433375] | 70 µM | 19 | no activity detected | no activity detected | 3.2 ± 0.1 µM |  |  |  |  |
| CS(=O)(=O)N1CCc2cc(-c3csc(NC(=O)Cc4cccs4)n3)ccc21 [compound 846635] | ~150 µM | 56 | no activity detected | no activity detected | 3.7 ± 0.1 µM | no activity detected |  |  |  |
| CCN=c1scc(-c2ccccc2)n1/N=C/c1ccccn1 [compound 22406746] | ~150 µM | 37 |  |  |  |  | 2.3 ± 0.2 µM | 2 ± 0.1 µM |  |
| C=CCn1c(SCC(=O)N2CC(=O)Nc3ccccc32)nc2scc(-c3ccccc3)c2c1=O [compound 14743644] | ~150 µM | 56 | no activity detected | no activity detected | 4.6 ± 0.1 µM |  |  |  |  |
| O=C(Cc1cccs1)Nc1nc2c(s1)CCCC2 [compound 4256670] |  |  |  |  |  |  |  |  | CC50 at 24 h [6]: ~150 µM; selectivity ratio [6]: 68; EC50 ([5]; Measles morbillivirus, read-out: EC50 (MV-Ibd)): 26.6 ± 9.3 µM; EC50 [7]: 22 µM; Suppression of reporter expression ([7]; at 5 μM): did not suppress reporter expression at all; EC50 ([2]; canine distemper virus): 3.9 ± 0.2 µM; EC50 ([3]; Human respirovirus 3, Vero, in Homo sapiens): 5.8 ± 0.6 µM; EC50 ([8]; Measles morbillivirus, 96 h, read-out: EC50 (MV-Alaska)): 2.2 ± 0.3 µM |
| CSc1nnc2c3ccccc3n(CCc3ccccc3)c2n1 [compound 7976354] | > 150 µM | >33 |  |  | 1 ± 0.1 µM |  | 0.9 ± 0.1 µM | 3.5 ± 0.1 µM |  |
| Cc1cccc2c(=O)cc(C)n(Cc3ccccc3)c12 [compound 22415156] | > 150 µM | >42 |  | no activity detected | 2.4 ± 0.2 µM |  | 11 ± 0.1 µM |  |  |
| COc1cc(/C=C/C(=O)N2CCOCC2)ccc1OCc1ccccc1 [compound 22415419] | > 150 µM | >33 |  | no activity detected | 2.2 ± 0.3 µM | no activity detected | 5 ± 0.2 µM |  |  |
| Cc1ccc(N(Cc2ccc(C(=O)NC3CCCCC3)cc2)S(C)(=O)=O)cc1C [compound 14722514] | ~150 µM | 214 | no activity detected | no activity detected | 3.6 ± 1.6 µM |  |  |  | Activity of re-synthesized compound versus original library substance [8]: essentially identical to the original substances stored in the library |
| COc1ccc(-n2c(SC(C)C(=O)Nc3ncc(Cl)cc3Cl)nc3ccccc32)cc1 (stereo not drawn) [compound 22407448] | > 150 µM |  |  |  | 0.1 µM |  |  | 0.2 ± 0.1 µM | Activity of re-synthesized compound versus original library substance [8]: essentially identical to the original substances stored in the library |
| COc1cc(/C=C/C(=O)NC(C)C)ccc1OCc1ccccc1 [compound 22415706] |  |  |  | no activity detected | 4.1 µM | no activity detected | 12.9 µM |  |  |
| CC(=O)Nc1ccc(-c2csc(NC(=O)CCCc3cccs3)n2)cc1 [compound 22408576] | > 150 µM | >65 | no activity detected | no activity detected | 2 ± 0.1 µM |  |  |  |  |
| COc1ccc([N+](=O)[O-])cc1NC(=O)CCc1ccccc1 [compound 17416393] | > 150 µM | >100 |  | no activity detected | 2.9 ± 0.5 µM | no activity detected | 12.9 ± 0.7 µM |  |  |
| C#CCn1c(S(=O)(=O)Cc2ccc(F)cc2)nc(-c2ccccc2)c1-c1ccccc1 [compound 17409378] | 26 µM | 37 |  |  | 1.4 ± 0.3 µM |  |  | 1.7 ± 0.2 µM |  |
| C=CCN=c1scc(-c2ccccc2)n1/N=C/c1ccccn1 [compound 22406106] | 139 µM | 116 |  |  |  |  |  |  |  |
| CCN(CC)C(=O)N1c2ccccc2C=Cc2ccccc21 [compound 14740150] | > 150 µM | >34 |  |  |  |  | 1.9 ± 0.1 µM | 3 ± 0.1 µM |  |

| Structure (SMILES) | CC50 [1] | SI (CC50/EC50) [1] | EC50 (CDV-752) [2, 9] | EC50 (HPIV3) [3, 10] | EC50 [4] | EC50 (MV-Ibd) [5] | EC50 [2, 9] | EC50 [3, 10] | further results |
| --- | --- | --- | --- | --- | --- | --- | --- | --- | --- |
| CS(=O)(=O)N1CCc2cc(-c3csc(NC(=O)Cc4ccccc4)n3)ccc21 [compound 14723513] | > 150 µM | >41 |  | no activity detected | 3.6 ± 0.2 µM | no activity detected | 26.8 ± 8.7 µM |  |  |
| Cn1c(C(=O)NCc2ccccc2)cc2oc3ccccc3c21 [compound 14735307] | > 150 µM |  | no activity detected | no activity detected | 5.4 ± 1.6 µM |  |  |  |  |
| Cc1cccc(-n2c(SCC(=O)Nc3ncc(Cl)cc3Cl)nc3ccccc32)c1 [compound 22404943] | > 150 µM | >214 |  |  | 0.5 ± 0.1 µM |  | 0.4 ± 0.1 µM | 0.6 ± 0.1 µM |  |
| CC(=O)/C(C#N)=C1\NC(=O)C(Cc2ccc(C)c(C)c2)S1 (stereo not drawn) [compound 14741996] | > 150 µM | >47 |  |  | 7.7 ± 0.1 µM |  | 4.2 ± 0.1 µM | 3.9 ± 0.1 µM |  |
| CNC(=O)c1ccc(OCc2ccccc2)c(OC)c1 [compound 4265637] | > 150 µM | >50 |  | no activity detected | 4.7 ± 0.3 µM | no activity detected | 6.7 ± 0.1 µM |  |  |
| Cc1ccc2[nH]c(=O)c(N3CCOCC3)c(-c3ccccc3)c2c1 [compound 4259333] | 118 µM | 36 | no activity detected | no activity detected | 4.3 ± 0.3 µM |  |  |  |  |
| O=C(CSc1nc2ccccc2n1-c1ccccc1)Nc1ncc(Cl)cc1Cl [compound 22407466] | > 150 µM | >71 |  |  |  |  | 0.9 ± 0.1 µM | 1 ± 0.1 µM |  |
| CSc1cccc(NC(=O)Cn2cccc2)c1 [compound 4245209] |  |  |  | no activity detected | 14.3 ± 0.8 µM | no activity detected | 31.1 µM |  |  |
| CSc1ccccc1NC(=O)Cn1c(-c2cscn2)nc2ccccc21 [compound 4261934] | > 150 µM | >63 | no activity detected | no activity detected | 3.9 ± 0.1 µM |  |  |  |  |
| CC(=O)Nc1ccc(-c2csc(NC(=O)C3CCN(S(=O)(=O)c4cccs4)CC3)n2)cc1 [compound 22410899] | > 150 µM | >39 | no activity detected | no activity detected | 3.8 ± 0.3 µM |  |  |  |  |
| CC(=O)Nc1ccc(Nc2cc(C)nc3c(-c4ccccc4)cnn23)cc1 [compound 17505573] | 54 µM | 14 | no activity detected | no activity detected | 1.6 ± 0.1 µM | no activity detected |  |  |  |
| O=C(Cc1cccs1)Nc1cc(SCCO)cc([N+](=O)[O-])c1 [compound 22402685] | > 150 µM | >79 |  | no activity detected | 1.6 ± 0.2 µM | no activity detected | 2.1 ± 0.3 µM |  |  |
| COc1cccc(CNC(=O)c2cc3oc4ccccc4c3n2C)c1OC [compound 4242806] | 147 µM | 105 |  |  | 2.1 ± 0.1 µM |  | 2.1 ± 0.1 µM | 2 ± 0.1 µM |  |
| CCOC(=O)Cn1c(-c2nonc2NC(=O)c2ccccc2F)nc2ccccc21 [compound 7973070] | ~150 µM | 375 |  |  | 2 ± 0.2 µM |  | 1 ± 0.1 µM | 1.9 ± 0.1 µM |  |
| CC1Cc2cc(-c3csc(NC(=O)Cc4cccs4)n3)ccc2N1S(C)(=O)=O (stereo not drawn) [compound 852230] | ~150 µM | 46 | no activity detected | no activity detected | 4.5 ± 0.2 µM | no activity detected |  |  |  |
